Experimental data taken from patent publication US11564392B2, “Methods of inactivation of viruses using n-methlyglucamide and its derivatives” (BAYER HEALTHCARE LLC, priority 2017, dated 2023).
“Also recorded” adds a separate entry of the source. Where two headings read alike, the source gives them in different places.

Key:
X-MuLV [1] = format: cell-based, xenotropic murine leukemia virus; conditions: for X-MuLV inactivation (FIG. 4): 0.5×, 1×, 2× of the CMC, room temperature; for X-MuLV inactivation (FIG. 4) / X-MuLV inactivation (FIG. 5): within 30 minutes; for X-MuLV inactivation (FIG. 5): 1× and 2× of the CMC
[2] = 25° C.; cited from earlier work
[3] = format: physicochemical
Procedure: Each detergent was obtained as powder from the manufacturer and was appropriately weighed and allowed to dissolve in Milli-Q water. […] The detergents were stored in a dark container in 2-8° C. Table 2 lists the manufacturers of the detergent powders and the in-house preparation which are also detailed in the methods section. […] This occurrence has been observed by others as well and may have to do with the increasing fatty chain length that enhances the hydrophobicity thus decreasing the likelihood of solubility, especially in water (Gaber et al., Burczyk, 2007).

X-MuLV [4] = experiment: X-MuLV inactivation in rFVIII by methylglucamides with or without Tw20, TnBP or NaCl, TCID50 assay; format: cell-based, xenotropic murine leukemia virus
Procedure: Methylglucamides were tested with other compounds to determine potential synergistic effects on viral inactivation. […] Then, the titers of each samples or controls were assayed using a TCID50 assay previously described. For each experiment (FIGS. 15, 16 and 17), the controls consisted of rFVIII spiked with X-MuLV with no detergent, and the yielded titers within the expected range of about 6.5 log10 TCID50/ml.

BVDV = format: cell-based, bovine viral diarrhea virus; conditions: for BVDV inactivation: Mega 10 0.2, 0.3, 0.4% (w/v), Mega 9 1.0% (w/v), 2.0° C.
X-MuLV [5] = format: cell-based, xenotropic murine leukemia virus
[6] = target: T1, recombinant FVIII (rFVIII) (Homo sapiens, UniProt P00451); experiment: Chromogenic assay to assess human Factor VIII activity after detergent incubation; format: biochemical; conditions: 0.3% (w/v)
T1 construct: recombinant human factor VIII (rFVIII) (full length wildtype, Bayer in-house preparation); made in house
Procedure: A diluent control of rFVIII matrix spiked only with Milli-Q H2O was also prepared and incubated under the same conditions. Following the incubation, detergents and diluent control were diluted in 1× assay buffer along with chromogenic assay (Chromogenix COATEST SP4 FVIII Kit, Cat: 82409463) FVIII standard and controls to the appropriate levels. Thirty μL of each detergent, control, and standard were loaded onto a 96-well plate in triplicate. Chromogenic assay reagents were added according to the manufacturer's protocol and incubated at 37.0° C. and 5.0% CO2 for 8 minutes. Assay plate was measured for absorbance t 405 and 492 nm on a Molecular Devices SpectraMax M5 microplate reader. Data was analyzed using SoftMax Pro v5.
The principle of the assay involves a specific step in the blood clotting mechanism, in which Factor X is converted to Factor Xa leading to the hydrolysis of the chromogenic substrate. This reaction is dependent on the activity of Factor VIII (FVIII) and directly correlates to measurable color intensity.

PRV = format: cell-based, porcine pseudorabies virus
[7] = rFVIII, 2° C., 30 min, Mega 8 1.81%, Mega 9 0.84%, Mega 10 0.20%, Mega 12 0.014% (w/v)
[8] = rFVIII, Room Temperature, 30 min, Mega 8 1.81%, Mega 9 0.45%, Mega 10 0.10%, Mega 12 0.014% (w/v)
[9] = 0.20% (w/v) Mega 10 or 0.71% (w/v) Mega 9, with or without NaCl
[10] = 0.3% (w/v), 2.0° C., 30 minutes

T1 sequence (P00451 20-2351): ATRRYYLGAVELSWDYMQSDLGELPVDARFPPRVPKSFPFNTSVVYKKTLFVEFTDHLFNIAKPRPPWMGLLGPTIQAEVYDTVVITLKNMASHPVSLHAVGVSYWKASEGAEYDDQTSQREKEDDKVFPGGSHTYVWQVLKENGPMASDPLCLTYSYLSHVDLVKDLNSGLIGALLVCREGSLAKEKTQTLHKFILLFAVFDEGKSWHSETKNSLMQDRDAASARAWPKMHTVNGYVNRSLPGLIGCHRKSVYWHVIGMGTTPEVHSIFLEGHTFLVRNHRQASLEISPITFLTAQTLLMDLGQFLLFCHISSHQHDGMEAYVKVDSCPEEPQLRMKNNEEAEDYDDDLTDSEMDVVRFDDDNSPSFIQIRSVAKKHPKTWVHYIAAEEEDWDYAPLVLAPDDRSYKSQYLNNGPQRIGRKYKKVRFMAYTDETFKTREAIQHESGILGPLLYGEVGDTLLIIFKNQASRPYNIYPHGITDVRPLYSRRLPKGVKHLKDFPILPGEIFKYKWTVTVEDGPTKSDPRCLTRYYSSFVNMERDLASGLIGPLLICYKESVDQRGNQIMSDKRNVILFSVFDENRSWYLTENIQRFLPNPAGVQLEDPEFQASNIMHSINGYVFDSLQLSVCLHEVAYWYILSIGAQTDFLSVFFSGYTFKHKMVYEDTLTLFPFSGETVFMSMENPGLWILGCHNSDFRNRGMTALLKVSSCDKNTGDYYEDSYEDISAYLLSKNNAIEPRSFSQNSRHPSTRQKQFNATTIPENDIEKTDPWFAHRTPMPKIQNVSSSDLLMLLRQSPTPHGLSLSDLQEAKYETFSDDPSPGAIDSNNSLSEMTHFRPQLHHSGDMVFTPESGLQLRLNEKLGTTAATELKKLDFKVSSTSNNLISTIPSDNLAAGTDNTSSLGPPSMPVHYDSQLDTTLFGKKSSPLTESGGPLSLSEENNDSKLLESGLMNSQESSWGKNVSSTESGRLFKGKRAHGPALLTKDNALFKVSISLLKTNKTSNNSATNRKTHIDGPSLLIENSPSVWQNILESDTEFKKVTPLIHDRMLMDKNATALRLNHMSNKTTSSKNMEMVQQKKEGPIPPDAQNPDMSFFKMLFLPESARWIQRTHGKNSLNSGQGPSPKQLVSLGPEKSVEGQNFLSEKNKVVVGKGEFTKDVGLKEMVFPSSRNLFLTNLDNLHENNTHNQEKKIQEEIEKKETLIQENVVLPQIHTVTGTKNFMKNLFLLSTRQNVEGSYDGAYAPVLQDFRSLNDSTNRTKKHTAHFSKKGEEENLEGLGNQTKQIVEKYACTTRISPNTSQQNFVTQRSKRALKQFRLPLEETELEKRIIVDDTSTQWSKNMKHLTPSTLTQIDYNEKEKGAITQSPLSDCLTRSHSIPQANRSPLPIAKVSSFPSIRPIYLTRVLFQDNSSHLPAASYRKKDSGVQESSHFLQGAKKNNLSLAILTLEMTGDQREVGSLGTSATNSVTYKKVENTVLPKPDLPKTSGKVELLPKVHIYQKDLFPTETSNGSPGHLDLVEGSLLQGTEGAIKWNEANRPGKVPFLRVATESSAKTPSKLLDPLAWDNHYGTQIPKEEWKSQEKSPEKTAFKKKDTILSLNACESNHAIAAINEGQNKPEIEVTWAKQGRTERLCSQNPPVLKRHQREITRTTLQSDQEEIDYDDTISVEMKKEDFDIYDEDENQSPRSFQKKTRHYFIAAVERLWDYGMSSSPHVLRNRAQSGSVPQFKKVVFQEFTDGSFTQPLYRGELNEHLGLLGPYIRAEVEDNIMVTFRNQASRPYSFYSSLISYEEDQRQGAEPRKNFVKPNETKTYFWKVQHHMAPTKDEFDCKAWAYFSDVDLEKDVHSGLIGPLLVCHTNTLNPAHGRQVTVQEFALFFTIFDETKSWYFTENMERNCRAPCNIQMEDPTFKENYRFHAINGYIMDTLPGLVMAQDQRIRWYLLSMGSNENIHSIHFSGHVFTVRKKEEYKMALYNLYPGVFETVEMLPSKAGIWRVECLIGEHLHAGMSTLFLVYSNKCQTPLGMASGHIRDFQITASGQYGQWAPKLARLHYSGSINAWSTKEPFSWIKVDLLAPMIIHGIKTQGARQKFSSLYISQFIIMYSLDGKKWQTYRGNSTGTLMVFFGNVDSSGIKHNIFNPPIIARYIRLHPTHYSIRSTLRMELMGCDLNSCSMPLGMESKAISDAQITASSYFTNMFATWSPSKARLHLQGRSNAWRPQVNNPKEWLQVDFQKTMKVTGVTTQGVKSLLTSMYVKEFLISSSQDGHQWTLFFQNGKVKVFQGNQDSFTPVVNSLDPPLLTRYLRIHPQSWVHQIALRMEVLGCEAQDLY
T1 sequence (P00451 1668-2351 limits assumed): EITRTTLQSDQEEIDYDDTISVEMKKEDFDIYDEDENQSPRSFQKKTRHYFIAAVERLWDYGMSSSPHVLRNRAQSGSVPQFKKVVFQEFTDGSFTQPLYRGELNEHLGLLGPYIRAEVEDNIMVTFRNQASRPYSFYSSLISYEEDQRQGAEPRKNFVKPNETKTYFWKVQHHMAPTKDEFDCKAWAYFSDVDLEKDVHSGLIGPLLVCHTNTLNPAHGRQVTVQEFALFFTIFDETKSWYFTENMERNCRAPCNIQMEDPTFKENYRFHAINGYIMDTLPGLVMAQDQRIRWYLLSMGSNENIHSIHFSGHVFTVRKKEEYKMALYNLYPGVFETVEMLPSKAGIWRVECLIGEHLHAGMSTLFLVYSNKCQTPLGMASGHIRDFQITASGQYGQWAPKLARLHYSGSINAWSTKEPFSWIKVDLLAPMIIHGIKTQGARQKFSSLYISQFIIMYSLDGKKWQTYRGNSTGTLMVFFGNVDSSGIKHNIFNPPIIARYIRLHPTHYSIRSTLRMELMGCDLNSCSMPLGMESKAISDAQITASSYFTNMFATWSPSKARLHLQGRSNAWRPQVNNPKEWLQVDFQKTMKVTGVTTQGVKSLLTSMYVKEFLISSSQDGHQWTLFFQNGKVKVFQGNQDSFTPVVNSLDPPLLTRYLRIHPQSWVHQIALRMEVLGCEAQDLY

## CCCCCCCC(=O)N(C)C[C@H](O)[C@@H](O)[C@H](O)[C@H](O)CO [Mega 8, octanoyl-N-methylglucamide]
X-MuLV [1]
  X-MuLV inactivation (FIG. 4): completely inactivated
X-MuLV [1]; 0.5×CMC, 2° C., 30 minutes
  X-MuLV inactivation: No significant inactivation
X-MuLV [1]; 0.5×CMC, 25° C., 30 minutes
  X-MuLV inactivation: No significant inactivation
X-MuLV [1]; 2.0° C.
  X-MuLV inactivation (FIG. 5): completely inactivated
X-MuLV [1]; [7]
  Infection observed: No
  Log Reduction Factor (LRF): ≥4.37
X-MuLV [1]; [8]
  Infection observed: No
  Log Reduction Factor (LRF): ≥4.32
[2]
  CMC: 58 mM
[3]
  solubilization of 5% (w/v) detergent in water: readily solubilized in water at room temperature

## CCCCCCCCC(=O)N(C)C[C@H](O)[C@@H](O)[C@H](O)[C@H](O)CO [Mega 9, nonaoyl-N-methylglucamide]
X-MuLV [4]; [9]
  X-MuLV inactivation: significantly inactivated
X-MuLV [1]
  X-MuLV inactivation (FIG. 4): completely inactivated
X-MuLV [1]; 0.5×CMC, 2° C., 30 minutes
  X-MuLV inactivation: partially
X-MuLV [1]; 0.5×CMC, 25° C., 30 minutes
  X-MuLV inactivation: completely
X-MuLV [1]; 2.0° C.
  X-MuLV inactivation (FIG. 5): completely inactivated
X-MuLV [1]; [7]
  Infection observed: No
  Log Reduction Factor (LRF): ≥4.37
X-MuLV [1]; [8]
  Infection observed: No
  Log Reduction Factor (LRF): ≥4.32
[2]
  CMC: 19 to 25 mM
BVDV; 1.0% (w/v)
  time to inactivate BVDV to the LOD: ≤ 30 min
BVDV; 1.0% (w/v), 2.0±1.0° C., 30 minutes
  BVDV titer (detection limit): ≤ 2.03 Log10 TCID50/mL
BVDV; 30 minutes
  BVDV inactivation: completely inactivated
[3]
  solubilization of 5% (w/v) detergent in water: readily solubilized in water at room temperature

## CCCCCCCCCC(=O)N(C)C[C@H](O)[C@@H](O)[C@H](O)[C@H](O)CO [Mega 10, decanoyl-N-methylglucamide]
X-MuLV [5]
  X-MuLV titer (limit of detection): ≤ 2.03 Log10 TCID50/mL
X-MuLV [5]; 0.2, 0.3, 0.4% (w/v) in human IgG and human plasma protein solutions, 2.0° C., 30 minutes
  X-MuLV inactivation: completely inactivated
X-MuLV [4]; [9]
  X-MuLV inactivation: significantly inactivated
X-MuLV [4]; 0.30% (w/v) M10 alone, +0.06% (w/v) Tw20, or +0.30% (w/v) TnBP, within 30 min
  X-MuLV inactivation: completely inactivated
X-MuLV [1]
  Infection Observed: No
  Infection observed: No
  LRF: ≥ 24.45
  X-MuLV inactivation kinetics: immediate decrease (complete inactivation); also recorded: immediately inactivated
  X-MuLV titer after treatment (limit of detection): ≤ 2.03 TCID50/mL
  lowest concentration to quickly and completely inactivate X-MuLV: approximately 0.23%
  time to reach limit of detection (LOD): ≤ 5 min
  virus titer: about 2.62 Log10 TCID50/mL
  virus titer (complete inactivation): ≤ 2.03 Log10 TCID50/mL
  X-MuLV inactivation (FIG. 4): completely inactivated
X-MuLV [1]; [10]
  X-MuLV inactivation: complete X-MuLV inactivation; also recorded: inactivated X-MuLV completely
X-MuLV [1]; 0.5×CMC, 2° C., 30 minutes
  X-MuLV inactivation: partially
X-MuLV [1]; 0.5×CMC, 25° C., 30 minutes
  X-MuLV inactivation: completely
X-MuLV [1]; 2.0° C.
  X-MuLV inactivation (FIG. 5): completely inactivated
X-MuLV [1]; [7]
  Infection observed: No
  Log Reduction Factor (LRF): ≥4.37
X-MuLV [1]; [8]
  Infection observed: No
  Log Reduction Factor (LRF): ≥4.32
[2]
  CMC: 6 to 7 mM
[6]; 2.0° C., 2 hour incubation
  effect on rFVIII activity: maintains its activity; also recorded: no effect on the activity of the protein drug
[6]; 2.0±1.0° C., 2 hours
  average activity of rFVIII: 52.26 IU/mL
PRV; 0.2 and 0.3%, 2.0±1.0° C., 15 minutes
  PRV titer (limit of detection): ≤ 2.03 Log10 TCID50/mL
PRV; 0.2 or 0.3 (w/v), 2.0° C.
  time to inactivate PRV to the limit of detection: ≤ 15 min
BVDV; 0.2%
  speed of BVDV inactivation: immediately after mixing
BVDV; 30 minutes
  BVDV inactivation: completely inactivated
[3]
  solubilization of 5% (w/v) detergent in water: solubilize within 15 minutes

## CCCCCCCCCCCC(=O)N(C)CC(O)C(O)C(O)C(O)CO (stereo not shown) [Mega 12, dodecanoyl-N-methylglucamide]
X-MuLV [1]
  X-MuLV inactivation (FIG. 4): completely inactivated
X-MuLV [1]; 0.5×CMC, 2° C., 30 minutes
  X-MuLV inactivation: No significant inactivation
X-MuLV [1]; 0.5×CMC, 25° C., 30 minutes
  X-MuLV inactivation: No significant inactivation
X-MuLV [1]; 2.0° C.
  X-MuLV inactivation (FIG. 5): completely inactivated
X-MuLV [1]; [7]
  Infection observed: No
  Log Reduction Factor (LRF): ≥4.37
X-MuLV [1]; [8]
  Infection observed: No
  Log Reduction Factor (LRF): ≥4.32
[2]
  CMC: 0.35 mM
[3]
  solubilization of 0.15% stock in water: able to come into solution when placed in a 60 °C water bath within 15 minutes
  solubilization of 5% (w/v) detergent in water: not able to dissolve water in a 37 °C water bath

## P-tert-Octylphenoxy) polyethoxyethanol [Triton X-100, reference compound]
X-MuLV [1]; [10]
  X-MuLV inactivation: complete X-MuLV inactivation; also recorded: inactivated X-MuLV completely
  X-MuLV titer after treatment (limit of detection): ≤ 2.54 TCID50/mL
